Laboratory results reported in the NIST ThermoML archive (doi:10.1021/je049930e).
Numbers after ± are expanded uncertainties.

Experiment: wn = mass fraction of the nth substance listed
Conditions: Liquid, Vibrating tube method

CC(=O)c1ccccc1 [acetophenone] + CCCCCCCCO
mass density [kg/m3]
Conditions | 100 kPa | 10000 kPa | 15000 kPa | 20000 kPa | 25000 kPa | 30000 kPa | 35000 kPa | 40000 kPa | 45000 kPa | 50000 kPa
298.15 K, w2 = 0.1075 | 996 ± 2.1 | 1001.7 ± 2.1 | 1004.5 ± 2.1 | 1007.2 ± 2.1 | 1009.8 ± 2.1 | 1012.3 ± 2.1 | 1014.9 ± 2.1 | 1017.3 ± 2.1 | 1019.7 ± 2.1 | 1022.1 ± 2.1
298.15 K, w2 = 0.2132 | 971.2 ± 2 | 977 ± 2 | 979.8 ± 2 | 982.5 ± 2 | 985.2 ± 2 | 987.7 ± 2 | 990.3 ± 2 | 992.8 ± 2 | 995.1 ± 2.1 | 997.5 ± 2.1
298.15 K, w2 = 0.3172 | 947.9 ± 2 | 953.8 ± 2 | 956.6 ± 2 | 959.4 ± 2 | 962 ± 2 | 964.7 ± 2 | 967.2 ± 2 | 969.7 ± 2 | 972.2 ± 2 | 974.6 ± 2
298.15 K, w2 = 0.4195 | 926.2 ± 1.9 | 932.2 ± 1.9 | 935.1 ± 1.9 | 937.9 ± 1.9 | 940.6 ± 1.9 | 943.2 ± 1.9 | 945.8 ± 2 | 948.3 ± 2 | 950.7 ± 2 | 953.2 ± 2
298.15 K, w2 = 0.5201 | 905.9 ± 1.9 | 911.9 ± 1.9 | 914.9 ± 1.9 | 917.6 ± 1.9 | 920.3 ± 1.9 | 923 ± 1.9 | 925.6 ± 1.9 | 928.1 ± 1.9 | 930.6 ± 1.9 | 933 ± 1.9
298.15 K, w2 = 0.6192 | 886.6 ± 1.8 | 892.7 ± 1.8 | 895.6 ± 1.9 | 898.4 ± 1.9 | 901.2 ± 1.9 | 903.8 ± 1.9 | 906.4 ± 1.9 | 909 ± 1.9 | 911.4 ± 1.9 | 913.8 ± 1.9
298.15 K, w2 = 0.7166 | 868.6 ± 1.8 | 874.7 ± 1.8 | 877.6 ± 1.8 | 880.4 ± 1.8 | 883.2 ± 1.8 | 885.9 ± 1.8 | 888.5 ± 1.8 | 891 ± 1.9 | 893.5 ± 1.9 | 895.9 ± 1.9
298.15 K, w2 = 0.8126 | 851.8 ± 1.8 | 857.9 ± 1.8 | 860.9 ± 1.8 | 863.7 ± 1.8 | 866.5 ± 1.8 | 869.2 ± 1.8 | 871.8 ± 1.8 | 874.2 ± 1.8 | 876.8 ± 1.8 | 879.2 ± 1.8
298.15 K, w2 = 0.907 | 836 ± 1.7 | 842.1 ± 1.7 | 845.1 ± 1.8 | 848 ± 1.8 | 850.7 ± 1.8 | 853.4 ± 1.8 | 855.9 ± 1.8 | 858.5 ± 1.8 | 861 ± 1.8 | 863.3 ± 1.8
318.15 K, w2 = 0.1075 | 978.9 ± 2 | 985.3 ± 2 | 988.3 ± 2 | 991.3 ± 2 | 994.1 ± 2.1 | 997 ± 2.1 | 999.5 ± 2.1 | 1002.2 ± 2.1 | 1004.8 ± 2.1 | 1007.3 ± 2.1
318.15 K, w2 = 0.2132 | 954.5 ± 2 | 960.9 ± 2 | 964 ± 2 | 967 ± 2 | 969.9 ± 2 | 972.7 ± 2 | 975.4 ± 2 | 978 ± 2 | 980.7 ± 2 | 983.2 ± 2
318.15 K, w2 = 0.3172 | 931.3 ± 1.9 | 937.8 ± 1.9 | 940.9 ± 1.9 | 943.9 ± 2 | 946.9 ± 2 | 949.7 ± 2 | 952.4 ± 2 | 955.1 ± 2 | 957.7 ± 2 | 960.3 ± 2
318.15 K, w2 = 0.4195 | 910 ± 1.9 | 916.6 ± 1.9 | 919.7 ± 1.9 | 922.8 ± 1.9 | 925.7 ± 1.9 | 928.6 ± 1.9 | 931.4 ± 1.9 | 934 ± 1.9 | 936.8 ± 1.9 | 939.3 ± 1.9
318.15 K, w2 = 0.5201 | 890 ± 1.8 | 896.7 ± 1.9 | 899.8 ± 1.9 | 902.9 ± 1.9 | 905.9 ± 1.9 | 908.7 ± 1.9 | 911.5 ± 1.9 | 914.2 ± 1.9 | 916.9 ± 1.9 | 919.5 ± 1.9
318.15 K, w2 = 0.6192 | 871.1 ± 1.8 | 877.8 ± 1.8 | 881.1 ± 1.8 | 884.1 ± 1.8 | 887.1 ± 1.8 | 890 ± 1.8 | 892.7 ± 1.9 | 895.4 ± 1.9 | 898.1 ± 1.9 | 900.7 ± 1.9
318.15 K, w2 = 0.7166 | 853.4 ± 1.8 | 860.2 ± 1.8 | 863.3 ± 1.8 | 866.4 ± 1.8 | 869.5 ± 1.8 | 872.4 ± 1.8 | 875.2 ± 1.8 | 877.9 ± 1.8 | 880.5 ± 1.8 | 883.1 ± 1.8
318.15 K, w2 = 0.8126 | 837 ± 1.7 | 843.9 ± 1.7 | 847 ± 1.8 | 850.2 ± 1.8 | 853.2 ± 1.8 | 856 ± 1.8 | 858.9 ± 1.8 | 861.6 ± 1.8 | 864.3 ± 1.8 | 866.8 ± 1.8
318.15 K, w2 = 0.907 | 821.6 ± 1.7 | 828.3 ± 1.7 | 831.6 ± 1.7 | 834.7 ± 1.7 | 837.7 ± 1.7 | 840.6 ± 1.8 | 843.4 ± 1.8 | 846.1 ± 1.8 | 848.8 ± 1.8 | 851.3 ± 1.8
348.15 K, w2 = 0.1075 | 952.5 ± 2 | 959.7 ± 2 | 963.2 ± 2 | 966.6 ± 2 | 969.9 ± 2 | 973.1 ± 2 | 976.1 ± 2 | 979.2 ± 2 | 982 ± 2 | 984.8 ± 2
348.15 K, w2 = 0.2132 | 928.4 ± 1.9 | 935.9 ± 1.9 | 939.4 ± 1.9 | 942.8 ± 1.9 | 946.1 ± 2 | 949.2 ± 2 | 952.3 ± 2 | 955.3 ± 2 | 958.2 ± 2 | 961 ± 2
348.15 K, w2 = 0.3172 | 905.7 ± 1.9 | 913.1 ± 1.9 | 916.7 ± 1.9 | 920.1 ± 1.9 | 923.5 ± 1.9 | 926.7 ± 1.9 | 929.8 ± 1.9 | 932.9 ± 1.9 | 935.9 ± 1.9 | 938.6 ± 1.9
348.15 K, w2 = 0.4195 | 884.7 ± 1.8 | 892.4 ± 1.8 | 896 ± 1.9 | 899.5 ± 1.9 | 902.9 ± 1.9 | 906.2 ± 1.9 | 909.3 ± 1.9 | 912.3 ± 1.9 | 915.3 ± 1.9 | 918.2 ± 1.9
348.15 K, w2 = 0.5201 | 865.1 ± 1.8 | 872.8 ± 1.8 | 876.5 ± 1.8 | 880 ± 1.8 | 883.4 ± 1.8 | 886.6 ± 1.8 | 889.6 ± 1.8 | 892.8 ± 1.9 | 895.9 ± 1.9 | 898.7 ± 1.9
348.15 K, w2 = 0.6192 | 846.9 ± 1.7 | 854.6 ± 1.8 | 858.3 ± 1.8 | 861.8 ± 1.8 | 865.3 ± 1.8 | 868.5 ± 1.8 | 871.7 ± 1.8 | 874.8 ± 1.8 | 877.8 ± 1.8 | 880.7 ± 1.8
348.15 K, w2 = 0.7166 | 829.6 ± 1.7 | 837.4 ± 1.7 | 841.1 ± 1.7 | 844.6 ± 1.8 | 848 ± 1.8 | 851.3 ± 1.8 | 854.5 ± 1.8 | 857.6 ± 1.8 | 860.5 ± 1.8 | 863.4 ± 1.8
348.15 K, w2 = 0.8126 | 813.7 ± 1.7 | 821.5 ± 1.7 | 825.2 ± 1.7 | 828.7 ± 1.7 | 832.1 ± 1.7 | 835.4 ± 1.7 | 838.6 ± 1.8 | 841.7 ± 1.8 | 844.6 ± 1.8 | 847.5 ± 1.8
348.15 K, w2 = 0.907 | 798.4 ± 1.7 | 806.4 ± 1.7 | 810.2 ± 1.7 | 813.8 ± 1.7 | 817.2 ± 1.7 | 820.4 ± 1.7 | 823.6 ± 1.7 | 826.7 ± 1.7 | 829.7 ± 1.8 | 832.5 ± 1.8
